molecular target: T1, human insuline receptor (Ins-R) (Homo sapiens, UniProt P06213); test: Insulin Receptor HTRF Assay (assay 4); format: biochemical; details: pIC50 class; 10 μM ATP; read-out: Enzymatic InsR activity (assay 4)
T1 construct: GST-tagged recombinant kinase domain of the human insuline receptor; GST; purchased ProQinase, Freiburg, Germany; host or cells: SF-9 cells
Description: Assay 4: Insulin Receptor HTRF Assay
Inhibitory activity of compounds against the kinase activity of the insulin receptor was quantified employing the Ins-R HTRF assay as described in the following paragraphs.
GST-tagged recombinant kinase domain of the human insuline receptor (Ins-R, purchase from ProQinase, Freiburg, Germany) expressed in SF-9 cells was used as kinase. As substrate for the kinase reaction biotinylated poly-(Glu, Tyr) (Cis biointernational, France) was used.
Ins-R was incubated for 20 min at 22° C. in the presence of different concentrations of test compounds in 5 μl assay buffer [50 mM Hepes/NaOH pH 7, 15 mM MnCl2, 1 mM dithiothreitol, 0.1 μM sodium ortho-vanadate, 0.015% (v/v) PEG20000, 10 μM adenosine-tri-phosphate (ATP), 0.3 μg/ml substrate, 1% (v/v) dimethylsulfoxide]. The concentration of Ins-R was adjusted depending of the activity of the enzyme lot and was chosen appropriate to have the assay in the linear range, typical concentrations were in the range of 10 pg/μl. The reaction was stopped by the addition of 5 μl of a solution of HTRF detection reagents (0.1 μM streptavidine-XLent and 1 nM PT66-Eu-Chelate, an europium-chelate labelled anti-phospho-tyrosine antibody from Perkin Elmer) in an aqueous EDTA-solution (80 mM EDTA, 0.2% (w/v) bovine serum albumin in 50 mM HEPES/NaOH pH 7.0).
The resulting mixture was incubated 1 h at 22° C. to allow the binding of the biotinylated phosphorylated peptide to the streptavidine-XLent and the PT66-Eu-Chelate. Subsequently the amount of phosphorylated substrate was evaluated by measurement of the resonance energy transfer from the PT66-Eu-Chelate to the streptavidine-XLent. Therefore, the fluorescence emissions at 620 nm and 665 nm after excitation at 350 nm was measured in a HTRF reader, e.g. a Rubystar (BMG Labtechnologies, Offenburg, Germany) or a Viewlux (Perkin-Elmer). The ratio of the emissions at 665 nm and at […] was taken as the measure for the amount of phosphorylated substrate. The data were normalised (enzyme reaction without inhibitor=0% inhibition, all other assay components but no enzyme=100% inhibition) and IC50 values were calculated by a 4 parameter fit using an inhouse software.

T1 sequence (P06213 1023-1298 limits assumed): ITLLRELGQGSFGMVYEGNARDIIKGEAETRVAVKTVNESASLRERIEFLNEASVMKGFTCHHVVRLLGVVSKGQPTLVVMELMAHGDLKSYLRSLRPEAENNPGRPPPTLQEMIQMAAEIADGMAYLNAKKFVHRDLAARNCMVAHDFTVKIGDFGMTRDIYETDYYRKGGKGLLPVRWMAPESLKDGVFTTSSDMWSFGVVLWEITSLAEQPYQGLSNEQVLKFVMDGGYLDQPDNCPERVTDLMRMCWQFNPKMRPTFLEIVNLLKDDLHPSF

| Compound | IC50 [µM] |
| --- | --- |
| Cn1ncc2c(C#Cc3cc(NC(=O)c4cccc(C(F)(F)F)c4)ccc3F)cncc21 [Example 1.9, N-[4-Fluoro-3-(1-methyl-1H-pyrazolo[3,4-c]pyridin-4-ylethynyl)-phenyl]-3-trifluoromethyl-benzamide] | ≥ 10 |
| Cn1ncc2c(C#Cc3cccc(NC(=O)c4cccc(C(F)(F)F)c4)c3)cncc21 [Example 1.5, N-[3-(1-Methyl-1H-pyrazolo[3,4-c]pyridin-4-ylethynyl)-phenyl]-3-trifluoromethyl-benzamide] | ≥ 10 |
| Cc1ccc(NC(=O)c2cccc(C(F)(F)F)c2)cc1C#Cc1cncc2c1cnn2C [Example 1.6, N-[4-Methyl-3-(1-methyl-1H-pyrazolo[3,4-c]pyridin-4-ylethynyl)-phenyl]-3-trifluoromethyl-benzamide] | ≥ 10 |
